From patent US20100075370A1, “METHOD FOR DETERMINATION OF CELL VIABILITY BY USING FLOW CYTOMETRY WITH FIXED VOLUME ACQUISITION” (TUMORTEC GMBH, priority 2006, published 2010)

Tests used:
[1] = tested on: pBMC from patients with CLL; experiment: Cytotoxicity of several antineoplastic agents on pBMC (LC90), fixed volume flow cytometry; assay type: cell-based, human; settings: in µg/mL
Description: The necessary peripheral blood (PB) samples from adult patients diagnosed with chronic lymphatic leukaemia (CLL) were collected into heparin during routine diagnosis prior to administration of chemotherapy.

[2] = tested on: patient samples (pBMC from CLL patients); experiment: DiSC assay, chemosensitivity index Ci; assay type: cell-based, human
Procedure: (2) A more complex standardization is the calculation of an index. In case of the chemosensitivity testing it is not a single value that has to be standardized. The chemosensitivity towards a drug is tested with several concentrations of the drug in parallel in a cell culture assay. […] This method was adopted for the present invention from the analysis of DiSC assays (Staib et al., British Journal of Haematology, 2005, 128, 783-791). The Chemosensitivity Index Ci was designed as a prognostic index for ex vivo chemosensitivity assays. Assay results were expressed as percent tumor cell survival (% TCS). The dose-response curve as a function of the dose-response relationship may be mathematically described by a […] regression model (FIG. 4). The dose-response curve was defined as CS=c1*e^conc*c2 % with cell survival (CS), drug concentration (conc) and the constants c1 and c2. c1 represented the y-axis distance and c2 the slope of the curve. The area under the curve (AUC) as an exact measure for the total dose response relation was defined as AUC=−e^c1/c2, on condition that c2 is less than 0, otherwise AUC is infinite. The chemosensitivity index, Ci, was set up as Ci=e^−AUC*c with a domain between 0 and 1. The drug-specific constant c was used for adjusting the Ci-value of 0.5 as the cut-off point between resistance and sensitivity. The constant c was defined as
with AUCcut-off as the smallest AUC value among all clinical non-responding patients of the training data set. Obviously, all cytotoxic agents given for treatment were ineffective in these patients. The cut-off Ci value must be adjusted to 0.5 for prognosis of the effect of the drug on a patient in vivo when the drug is tested on said patient's cells in vitro using the method of the present invention. Ci values of 0-0.5 indicated resistance and values above 0.5 predicted sensitivity against the drug tested.
The chemosensitivity index Ci based on the DiSC assay as described in Staib, P. et al., Br. J. Haematol., 128(6):783-91 (2005) is known to have a very high accuracy of prediction (98%) for the clinical outcome of a particular chemotherapy (Staib, P. et al., Br. J. Haematol., 128(6):783-91 (2005)). In order to evaluate the accuracy of the cytotoxicity assay as described in example 1 (“new method”), the Ci determination was performed for assay results of patient samples analyzed with the traditional DiSC assay and—in parallel—with the new assay method described in example 1. In total, 22 patient samples were analyzed. Fludara® was used in both assays. The cytotoxicity assay of example 1 was performed as described therein, and the DiSC assay was performed as described in Staib, P. et al., Br. J. Haematol., 128(6):783-91 (2005).

SMILES: Nc1nc(F)nc2c1ncn2[C@@H]1O[C@H](COP(=O)(O)O)[C@@H](O)[C@@H]1O [Fludarabine phosphate, 2-Fluoro-9-(5-O-phosphono-β-D-arabinofuranosyl)-9H-purin-6-amine]
- LC90 ([1]; pBMC of CLL patient #1, ex vivo): 69.69
- LC90 ([1]; pBMC of CLL patient #2, ex vivo): 11.74
- LC90 ([1]; pBMC of CLL patient #3, ex vivo): 0.09
- LC90 ([1]; pBMC of CLL patient #4, ex vivo): 26.00
- LC90 ([1]; pBMC of CLL patient #5, ex vivo): 0.46
- LC90 ([1]; pBMC of CLL patient #6, ex vivo): 18.17
- LC90 ([1]; pBMC of CLL patient #7, ex vivo): 13.25
- LC90 ([1]; pBMC of CLL patient #8, ex vivo): 15.02
- LC90 ([1]; pBMC of CLL patient #9, ex vivo): 0.94
- LC90 ([1]; pBMC of CLL patient #10, ex vivo): 0.01
- LC90 ([1]; pBMC of CLL patient #11, ex vivo): 2.15
- LC90 ([1]; pBMC of CLL patient #12, ex vivo): 0.33
- LC90 ([1]; pBMC of CLL patient #13, ex vivo): 0.82
- LC90 ([1]; pBMC of CLL patient #14, ex vivo): 0.86
- LC90 ([1]; pBMC of CLL patient #15, ex vivo): 0.58
- LC90 ([1]; pBMC of CLL patient #16, ex vivo): 0.22
- LC90 ([1]; pBMC of CLL patient #17, ex vivo): 0.55
- LC90 ([1]; pBMC of CLL patient #18, ex vivo): 0.55
- LC90 ([1]; pBMC of CLL patient #19, ex vivo): 0.50
- LC90 ([1]; pBMC of CLL patient #20, ex vivo): 0.00
- LC90 ([1]; pBMC of CLL patient #21, ex vivo): 0.11
- LC90 ([1]; pBMC of CLL patient #22, ex vivo): 81.92
- LC90 ([1]; pBMC of CLL patient #23, ex vivo): 0.01
- LC90 ([1]; pBMC of CLL patient #24, ex vivo): 23.76
- LC90 ([1]; pBMC of CLL patient #25, ex vivo): 35.21
- Ci (DiSC-Assay) ([2]; patient #1): 0.99
- prediction (DiSC-Assay) ([2]; patient #1): sensitive (values above 0.5 predicted sensitivity against the drug tested)
- Ci (DiSC-Assay) ([2]; patient #2): 0.98
- prediction (DiSC-Assay) ([2]; patient #2): sensitive (values above 0.5 predicted sensitivity against the drug tested)
- Ci (DiSC-Assay) ([2]; patient #3): 0.97
- prediction (DiSC-Assay) ([2]; patient #3): sensitive (values above 0.5 predicted sensitivity against the drug tested)
- Ci (DiSC-Assay) ([2]; patient #4): 0.95
- prediction (DiSC-Assay) ([2]; patient #4): sensitive (values above 0.5 predicted sensitivity against the drug tested)
- Ci (DiSC-Assay) ([2]; patient #5): 0.90
- prediction (DiSC-Assay) ([2]; patient #5): sensitive (values above 0.5 predicted sensitivity against the drug tested)
- Ci (DiSC-Assay) ([2]; patient #6): 0.89
- prediction (DiSC-Assay) ([2]; patient #6): sensitive (values above 0.5 predicted sensitivity against the drug tested)
- Ci (DiSC-Assay) ([2]; patient #7): 0.85
- prediction (DiSC-Assay) ([2]; patient #7): sensitive (values above 0.5 predicted sensitivity against the drug tested)
- Ci (DiSC-Assay) ([2]; patient #8): 0.81
- prediction (DiSC-Assay) ([2]; patient #8): sensitive (values above 0.5 predicted sensitivity against the drug tested)
- Ci (DiSC-Assay) ([2]; patient #9): 0.75
- prediction (DiSC-Assay) ([2]; patient #9): sensitive (values above 0.5 predicted sensitivity against the drug tested)
- Ci (DiSC-Assay) ([2]; patient #10): 0.70
- prediction (DiSC-Assay) ([2]; patient #10): sensitive (values above 0.5 predicted sensitivity against the drug tested)
- Ci (DiSC-Assay) ([2]; patient #11): 0.68
- prediction (DiSC-Assay) ([2]; patient #11): sensitive (values above 0.5 predicted sensitivity against the drug tested)
- Ci (DiSC-Assay) ([2]; patient #12): 0.61
- prediction (DiSC-Assay) ([2]; patient #12): sensitive (values above 0.5 predicted sensitivity against the drug tested)
- Ci (DiSC-Assay) ([2]; patient #13): 0.60
- prediction (DiSC-Assay) ([2]; patient #13): sensitive (values above 0.5 predicted sensitivity against the drug tested)
- Ci (DiSC-Assay) ([2]; patient #14): 0.57
- prediction (DiSC-Assay) ([2]; patient #14): sensitive (values above 0.5 predicted sensitivity against the drug tested)
- Ci (DiSC-Assay) ([2]; patient #15): 0.55
- prediction (DiSC-Assay) ([2]; patient #15): sensitive (values above 0.5 predicted sensitivity against the drug tested)
- Ci (DiSC-Assay) ([2]; patient #16): 0.50
- prediction (DiSC-Assay) ([2]; patient #16): resistant (Ci values of 0-0.5 indicated resistance)
- Ci (DiSC-Assay) ([2]; patient #17): 0.47
- prediction (DiSC-Assay) ([2]; patient #17): resistant (Ci values of 0-0.5 indicated resistance)
- Ci (DiSC-Assay) ([2]; patient #18): 0.46
- prediction (DiSC-Assay) ([2]; patient #18): resistant (Ci values of 0-0.5 indicated resistance)
- Ci (DiSC-Assay) ([2]; patient #19): 0.43
- prediction (DiSC-Assay) ([2]; patient #19): resistant (Ci values of 0-0.5 indicated resistance)
- Ci (DiSC-Assay) ([2]; patient #20): 0.39
- prediction (DiSC-Assay) ([2]; patient #20): resistant (Ci values of 0-0.5 indicated resistance)
- Ci (DiSC-Assay) ([2]; patient #21): 0.34
- prediction (DiSC-Assay) ([2]; patient #21): resistant (Ci values of 0-0.5 indicated resistance)
- Ci (DiSC-Assay) ([2]; patient #22): 0.32
- prediction (DiSC-Assay) ([2]; patient #22): resistant (Ci values of 0-0.5 indicated resistance)
